Laboratory results published in US20100279976A1, “USE OF ARTEMISININ AND ITS DERIVATIVES IN CANCER THERAPY” (SHANGHAI INSTITUTES FOR BIOLOGICAL SCIENCES, CAS, priority 2009, published 2010).
Like-named read-outs stand apart in the source and are kept apart here.

What was measured:
[1] = test system: HepG2 cells; assay: Western blot of apoptosis-related proteins; format: cell-based, human; settings: HepG2, 48 h
Procedure: Whole-cell lysates may be generated with radioimmunoprecipitation assay lysis buffer, and after centrifugation, the supernatant fraction may be collected for immunoblotting. Proteins may be resolved by SDS-PAGE and transferred onto a nitrocellulose membrane. After blocking with 5% nonfat milk in blocking buffer [20 mmol/L TBS (pH 7.5) containing 0.1% Tween 20], the membrane may be incubated with the desired primary antibody for 2 h at room temperature and then incubated with appropriate peroxidase conjugated secondary antibody. The immunoreactive bands may be visualized using the ECL Plus Western Blotting Detection System. The level of ([…] for each sample may be used as loading control. Tumor tissues may be collected at the termination of the experiment and homogenized using a homogenizer in ice-cold lysis buffer. Supernatants may be collected and used to examine the expression of different proteins by Western blot analysis.

[2] = test system: HepG2 cells; assay: Annexin V-FITC apoptosis assay, HepG2; format: cell-based, human
Procedure: (§1) ART- and DHA-induced apoptosis alone or in combination with gemcitabine in HepG2 and Hep3B cells or in combination with carboplatin in ovarian cancer cells may be determined by flow cytometry using the Annexin V-FITC Apoptosis Detection kit following the manufacturer's instructions. Briefly, 2×10^5 cells may be treated with ART and DHA (0, 1, 10, 25, and 50 mol/L) or 10 μg/L gemcitabine for 48 h. The cells may then be harvested, washed in PBS, and incubated with Annexin V and propidium iodide for staining in binding buffer at room temperature for 10 min in the dark. The stained cells may be analyzed using the FACSAria instrument.

[3] = test system: A2780 xenograft tumors; format: in vivo; settings: for tumor growth inhibition: A2780 xenograft, 5 days/week
Procedure: Four to six week old female athymic nude mice (BALB/c, nu/nu) may be purchased from Shanghai Experimental Animal Center (Shanghai, China). Animal studies are approved by the Institute for Nutritional Sciences. The tumor xenograft model may be established as follows. […] Aliquots of cells (˜5×10^6 cells/0.2 ml) may be injected subcutaneously into the left inguinal area of the mice. The tumor growth and body weight of the mice may be monitored every other day. Tumor mass may be determined. Mice bearing palpable tumors (˜70 mg) may be randomly divided into treatment and control groups n=5 mice/group). CBP may be dissolved in saline, and DHA may be dissolved in cremophor EL:ethanol:saline (5:5:90, v/v/v). DHA may be administered via i.p. injection at doses of 10 and 25 mg/kg/5 days/week for 3 weeks) alone or combined with CBP (at a single dose of 120 mg/kg, once on day 0). The control group receives saline only. Mice may be killed on day 18. Tumors may be carefully excised, trimmed of extraneous fat or connective tissue, and homogenized in RIPA buffer (100 mg tumor tissue/1 ml RIPA) and prepared for immunoblotting analysis as described above.

[4] = test system: A2780 cells; assay: Annexin V-FITC apoptosis assay, A2780; format: cell-based, human; settings: A2780, 50 μM, 24 hrs
Procedure: as §1, with “Briefly, 2×10^5 cells may be treated with ART and DHA (0, 1, 10, 25, and 50 mol/L) or 10 μg/L gemcitabine for 48 h.” left out

C[C@@H]1CC[C@H]2[C@@H](C)C(=O)O[C@@H]3O[C@@]4(C)CC[C@@H]1[C@]32OO4 [ART, artemisinin]
MDM2 level [1]: decrease
cleavage of caspase-3 and PARP [1]: dose-dependent increase
level of Bax [1]: concomitant increase
level of Bcl-2 protein [1]: dose-dependent reduction
p53 level [1]: dose-dependent increase
apoptotic cells ([2]; HepG2, 1 μmol/L, 48 h (0 μmol/L: 7%)): 9%
apoptotic cells ([2]; HepG2, 10 μmol/L, 48 h): 14.95%
apoptotic cells ([2]; HepG2, 25 μmol/L, 48 h): 15.45%
apoptotic cells ([2]; HepG2, 50 μmol/L, 48 h): 16.45%

C[C@H]1[C@@H](O)O[C@@H]2O[C@@]3(C)CC[C@H]4[C@H](C)CC[C@@H]1[C@@]24OO3 [DHA, dihydroartemisinin]
tumor growth inhibition ([3]; DHA 10 mg/kg i.p., vs saline control): 24%
tumor growth inhibition ([3]; DHA 25 mg/kg i.p.): 41%
host toxicity based on observation of body weight ([3]; mice bearing A2780 or OVCAR-3 xenografts): No other host toxicities are observed
increase in apoptosis versus control [4]: 17 fold
